# Assays:
# [1] = target: T1, cardiac adenylyl cyclase (Canis lupus familiaris, UniProt P30803); assay: Adenylyl cyclase activity assay (method of Salomon), crude membranes of CMT cells transfected with pcDNA113-72; type: biochemical, canine; settings: for fold more stimulation than the control: transfected vs untransfected control, 100 µM forskolin
# T1 construct: The expression vector containing the full length cDNA is designated pcDNA113-72; expressed in transfected cells; host or cells: monkey kidney CMT cells (COS derivative), transient transfection with pcDNA113-72, crude membrane preparation
# From the text: Biochemical characterization of the protein product encoded by this cDNA is obtained using a CMT cell-expression system. The CMT cell is a derivative of the COS cell in which expression of the T-antigen is under the control of a metallothionein promoter. Thus the accumulation of T-antigen in the cell is further enhanced by the addition of heavy metal ion in the medium. The adenylyl cyclase cDNA construct (113-72) is cloned into pcDNA 1, a CMV promoter-driven expression vector with an SV40 enhancer-origin of replication element. A crude membrane preparation is prepared from the transfected CMT cells and a variety of agents known to stimulate adenylyl cyclase are examined (Table I). There is a dose-dependent relationship between the amount of plasmid transfected and the resultant adenylyl cyclase activity, both basal and forskolin-stimulated (0-30 µg per transfection). When the plasmid without insert is transfected, the resultant adenylyl cyclase activity is slightly (∼15%) lower than that of mock-transfected cells. All activities are enhanced several-fold in the transfected cells, as compared to controls, with the forskolin-stimulated activity showing the greatest increase in activity (>6-fold increase over control).
# In an example of such expression, twenty µg of the purified plasmid pcDNA 113-72 are transfected into the monkey kidney CMT cells using a modified method of Golub et al. (17). Briefly, the cells are grown to 80% confluence in Dulbecco's modification of Eagle's Medium, 10% fetal calf serum, 2 mM glutamine, 4.5 mg/ml glucose, 10 µg/ml streptomycin sulfate and 60 µg/ml penicillin K. After washing with PBS twice, 0.5 ml of trypsin solution is added. The cells are incubated for 10 minutes, and 20 µg of purified plasmid resuspended in 4 ml of DMEM containing 400 µg/ml DEAE dextran and 0.1 mM chloroquine is added. The cells are incubated for four hours followed by 10% DMSO shock for two minutes. After washing with PBS twice, the induction media, which contains 10% fetal calf serum (FCS), 2 mM glutamine, […], 2 mM penicillin and streptomycin, and 1 µM CdCl₂, 0.1 µM ZnCl₂ in DMEM, is added. The plate is incubated at 37 °C for 72 hours before harvesting.
# The biochemical property of this cardiac adenylyl cyclase is examined in a transient expression system using CMT cells (a derivative of COS cells). CMT cells contain T-antigen driven by a methalothionein promoter in the genome. Thus by induction with heavy metal ion in the medium, CMT cells could produce more T-antigen than COS cells. A 4.3 kb fragment of the adenylyl cyclase cDNA (#113-72) containing the whole coding sequence is inserted into the pcDNA1 plasmid described above (Invitrogen).
# The adenylyl cyclase activity of a cell transfected with the expression vector pcDNA1 carrying cardiac adenylyl cyclase cDNA is assayed as follows. The transfected CMT cells are washed twice with PBS and scraped in three ml of cold buffer containing 50 mM Tris (pH8.0), 1 mM EDTA, 10 µM PMSF (phenylmethylsulfonylfluoride), 100 U leupeptin, and 50 U egg white trypsin inhibitor (ETI) on ice. The membrane is homogenated in Polytron™ (setting 6 for 10 seconds) and is centrifuged at 800 x g for 10 minutes at 4 °C. The supernatant is further centrifuged at […] for 40 minutes at 4 °C. The resultant pellet is resuspended in 50 mM Tris (pH 8.0), 1 mM EDTA, 1 µM PMSF, 50 U leupeptin, and 50 U ETI, to a concentration of 5 µg/µl. This crude membrane solution is used for the adenylyl cyclase asssay. […]
# [2] = system: untransfected CMT cells; assay: Adenylyl cyclase activity assay, membrane from untransfected CMT cells (control); type: biochemical, monkey; settings: Control (untransfected CMT cell membrane), ± standard error
# Experimental: The adenylyl cyclase activity of a cell transfected with the expression vector pcDNA1 carrying cardiac adenylyl cyclase cDNA is assayed as follows. The transfected CMT cells are washed twice with PBS and scraped in three ml of cold buffer containing 50 mM Tris (pH8.0), 1 mM EDTA, 10 µM PMSF (phenylmethylsulfonylfluoride), 100 U leupeptin, and 50 U egg white trypsin inhibitor (ETI) on ice. The membrane is homogenated in Polytron™ (setting 6 for 10 seconds) and is centrifuged at 800 x g for 10 minutes at 4 °C. The supernatant is further centrifuged at 100 x g for 40 minutes at 4 °C. The resultant pellet is resuspended in 50 mM Tris (pH 8.0), 1 mM EDTA, 1 µM PMSF, 50 U leupeptin, and 50 U ETI, to a concentration of 5 µg/µl. This crude membrane solution is used for the adenylyl cyclase asssay.
# The adenylyl cyclase assay is performed by the method of Salomon (21). Briefly, the crude membranes from CMT cells are resuspended in a solution containing 1 mM creatine phosphate, 8 µg/ml creatine phophokinase, 4 mM HEPES (pH 8.0), 2 mM MgCl₂, 0.1 mM c-AMP, 0.1 mM ATP, and ³²P-ATP (0.2-5 µCi/assay tube). […] Cyclic-AMP is separated from ATP by passing through Dowex and alumina columns, and the radioactivity is counted by scintillation counter. The protein concentration of the membranes used are measured by Bradford's method (22), with bovine serum albumin as a standard. […]
# [3] = target: T2, type V adenylyl cyclase (Canis lupus familiaris, UniProt P30803); assay: P-site inhibition of adenylyl cyclase activity by adenosine and its analogues, transfected CMT membranes; type: biochemical, canine; settings: 0-100 µM; membranes preincubated with 5 mM Mn²⁺ and 100 µM forskolin for 10 minutes
# T2 construct: expressed in transfected cells; host or cells: CMT cells, crude membrane preparation
# Experimental: Figure 7 depicts the effect of adenosine and its analogues on type V adenylyl cyclase activity. Membrane (transfected with pcDNA112-72 or control) are preincubated with 5 mM Mn²⁺ and 100 µM forskolin for 10 minutes prior to the assay. […] Each point in the average of triplicate determinations.
# Another feature of adenylyl cyclase is its inhibition through an allosteric purine binding or P-site (6). […] This is more apparent when the enzyme is first activated by the addition of Mn²⁺, forskolin. The order of potency was as follows: 2'-deoxy-3'-AMD>3'-AMP>2'-deoxyadenosine>adenosine (Figure 7).
# [4] = target: T2, type V adenylyl cyclase; assay: Calcium/calmodulin sensitivity of adenylyl cyclase activity, transfected CMT cell membranes; type: biochemical, canine; settings: 30 µg crude CMT cell membrane; 0-1 mM calcium (CaCl₂); membranes washed with EGTA
# Experimental: Figure 6 depicts the effect of calcium on type V adenylyl cyclase activity. Adenylyl cyclase activity (CMT cells transfected with pcDNA113-72 or cardiac sarcolemma) is measured in the presence of increasig concentrations of calcium (0-1 mM). Cardiac sarcolemma is prepared as described (26). Both membrane preparations are first washed with EGTA prior to assay (27). Similar results are obtained in three independent experiments. The efficiency of transfection is confirmed by at least a 4-fold increase in both basal and forskolin-stimulated adenylyl cyclase activities over control.
# The calcium/calmodulin sensitivity of this protein is also assessed. […] Thirty µg of the crude CMT cell membrane preparation are incubated in the presence of increasing concentrations of CaCl₂. […] The adenylyl cyclase activity also is assessed in canine cardiac sarcolemma.
# [5] = 10 mM sodium fluoride, 100 µM GTPγS
# T1 sequence (P30803 82-1265 limits assumed): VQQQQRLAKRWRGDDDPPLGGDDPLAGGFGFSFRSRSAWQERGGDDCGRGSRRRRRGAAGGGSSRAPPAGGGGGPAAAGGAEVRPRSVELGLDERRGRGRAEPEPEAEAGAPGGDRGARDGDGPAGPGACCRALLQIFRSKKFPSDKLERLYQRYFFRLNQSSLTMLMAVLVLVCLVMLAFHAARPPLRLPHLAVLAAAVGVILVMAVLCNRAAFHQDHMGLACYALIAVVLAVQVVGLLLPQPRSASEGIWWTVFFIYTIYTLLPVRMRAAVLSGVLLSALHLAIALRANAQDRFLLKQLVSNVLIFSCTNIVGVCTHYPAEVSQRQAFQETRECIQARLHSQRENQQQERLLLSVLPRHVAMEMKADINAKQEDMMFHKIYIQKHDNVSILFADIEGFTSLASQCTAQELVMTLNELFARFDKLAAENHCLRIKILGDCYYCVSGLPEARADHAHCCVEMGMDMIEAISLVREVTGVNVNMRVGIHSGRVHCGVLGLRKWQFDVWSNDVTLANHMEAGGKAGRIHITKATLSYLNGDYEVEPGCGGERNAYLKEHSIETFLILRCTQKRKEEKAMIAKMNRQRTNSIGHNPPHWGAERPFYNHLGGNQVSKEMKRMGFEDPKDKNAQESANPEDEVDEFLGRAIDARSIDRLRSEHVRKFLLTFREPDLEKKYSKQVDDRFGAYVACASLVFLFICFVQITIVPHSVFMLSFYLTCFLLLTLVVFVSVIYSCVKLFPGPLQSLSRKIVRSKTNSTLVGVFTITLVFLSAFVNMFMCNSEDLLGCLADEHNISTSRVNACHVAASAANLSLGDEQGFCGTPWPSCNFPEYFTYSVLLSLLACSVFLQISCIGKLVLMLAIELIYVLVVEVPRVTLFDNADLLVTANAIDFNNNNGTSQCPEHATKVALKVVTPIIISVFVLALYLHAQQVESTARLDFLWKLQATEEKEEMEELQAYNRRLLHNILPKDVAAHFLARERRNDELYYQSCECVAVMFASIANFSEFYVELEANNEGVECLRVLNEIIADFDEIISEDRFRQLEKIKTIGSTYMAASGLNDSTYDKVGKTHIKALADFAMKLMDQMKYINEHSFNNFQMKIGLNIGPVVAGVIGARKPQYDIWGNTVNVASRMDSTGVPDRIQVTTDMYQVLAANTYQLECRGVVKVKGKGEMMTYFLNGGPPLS
# T2 sequence (P30803 82-1265 limits assumed): as above
compound,measurement,setting,value
"[F-].[Na+] [NaF, sodium fluoride]","adenylyl cyclase activity, NaF","[1]; Transfected CMT cell membranes, 10 mM sodium fluoride, ± standard error",41±4.7
same,fold more stimulation than the control,[1]; [5],2.7 fold
same,"adenylyl cyclase activity, NaF",[2]; 10 mM sodium fluoride,15±3.1
Nc1nc2c(ncn2[C@@H]2O[C@H](COP(=O)(O)OP(=O)(O)OP(O)(O)=S)[C@@H](O)[C@H]2O)c(=O)[nH]1 [GTPγS],"adenylyl cyclase activity, GTPγS","[1]; Transfected CMT cell membranes, 100 µM GTPγS, ± standard error",84±12.5
same,fold more stimulation than the control,[1]; [5],2.8 fold
same,"adenylyl cyclase activity, GTPγS",[2]; 100 µM GTPγS,30± 4.5
Nc1ncnc2c1ncn2[C@H]1C[C@H](O)[C@@H](CO)O1 [2'-deoxyadenosine],order of potency of inhibition of adenylyl cyclase activity,[3],2'-deoxy-3'-AMD>3'-AMP>2'-deoxyadenosine>adenosine
Nc1ncnc2c1ncn2[C@H]1C[C@H](OP(=O)(O)O)[C@@H](CO)O1 [2'-deoxy-3'-AMD],order of potency of inhibition of adenylyl cyclase activity,[3],2'-deoxy-3'-AMD>3'-AMP>2'-deoxyadenosine>adenosine
Nc1ncnc2c1ncn2[C@@H]1O[C@H](CO)[C@@H](O)[C@H]1O [adenosine],order of potency of inhibition of adenylyl cyclase activity,[3],2'-deoxy-3'-AMD>3'-AMP>2'-deoxyadenosine>adenosine
CaCl₂ [calcium],effect of calcium on adenylyl cyclase activity,[4],inhibited in a concentration-dependent manner
Nc1ncnc2c1ncn2[C@@H]1O[C@H](CO)[C@@H](OP(=O)(O)O)[C@H]1O [3'-AMP],order of potency of inhibition of adenylyl cyclase activity,[3],2'-deoxy-3'-AMD>3'-AMP>2'-deoxyadenosine>adenosine
manganese,adenylyl cyclase activity stimulated over the control,[1]; in the presence of 5 mM manganese,more than 10 fold

# — patent publication EP0529622A2, “Cloning and characterization of a cardiac adenylyl cyclase” (AMERICAN CYANAMID COMPANY, priority 1991, dated 1993)
